Assays:
Test in all cases: In vitro antibacterial activity, agar dilution MIC
Assay type in all cases: cell-based
[1] = tested on: Streptococcus Pheumoniae 5649; conditions: Streptococcus Pheumoniae 5649 (organism code ZZA); BHI agar, 35-37 °C, 20 to 24 hours; unit assumed
How it was run: (§1)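 BHI agar dilution; 12 successive concentrations; Steers replicator inoculum 1:100, or 1:10 for slow-growing strains (e.g. Streptococcus). Plates inspected visually; MIC = lowest drug level with no growth, faint haze or sparse colonies vs compound-free control. Same-class reference antibiotic run each test.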

[2] = tested on: Escherichia coli JUHL; conditions: Escherichia coli JUHL (organism code QQ); BHI agar, 35-37 °C, 20 to 24 hours; unit assumed
How it was run: as §1

[3] = tested on: Micrococcus luteus ATCC 9341; conditions: Micrococcus luteus ATCC 9341 (organism code OO); BHI agar, 35-37 °C, 20 to 24 hours; unit assumed
How it was run: as §1

[4] = tested on: Staphylococcus aureus A5177; conditions: Staphylococcus aureus A5177 (organism code BB); BHI agar, 35-37 °C, 20 to 24 hours; unit assumed
How it was run: as §1

[5] = tested on: Haemophilis Influenzae DILL AMP R; conditions: Haemophilis Influenzae DILL AMP R (organism code WW); BHI agar, 35-37 °C, 20 to 24 hours; unit assumed
How it was run: as §1

[6] = tested on: Staphylococcus aureus CMX 642A; conditions: Staphylococcus aureus CMX 642A (organism code DD); BHI agar, 35-37 °C, 20 to 24 hours; unit assumed
How it was run: as §1

[7] = tested on: Streptococcus bovis A-5169; conditions: Streptococcus bovis A-5169 (organism code JJ); BHI agar, 35-37 °C, 20 to 24 hours; unit assumed
How it was run: as §1

[8] = tested on: Staphylococcus aureus ATCC 6538P; conditions: Staphylococcus aureus ATCC 6538P (organism code AA); BHI agar, 35-37 °C, 20 to 24 hours; unit assumed
How it was run: as §1

[9] = tested on: Escherichia coli DC-2; conditions: Escherichia coli DC-2 (organism code SS); BHI agar, 35-37 °C, 20 to 24 hours; unit assumed
How it was run: as §1

[10] = tested on: Streptococcus pyogenes PIU 2548; conditions: Streptococcus pyogenes PIU 2548 (organism code NN); BHI agar, 35-37 °C, 20 to 24 hours; unit assumed
How it was run: as §1

[11] = tested on: Mycobacterium smegmatis ATCC 114; conditions: Mycobacterium smegmatis ATCC 114 (organism code UU); BHI agar, 35-37 °C, 20 to 24 hours; unit assumed
How it was run: as §1

[12] = tested on: Micrococcus luteus ATCC 4698; conditions: Micrococcus luteus ATCC 4698 (organism code PP); BHI agar, 35-37 °C, 20 to 24 hours; unit assumed
How it was run: as §1

[13] = tested on: Streptococcus agalactiae CMX 508; conditions: Streptococcus agalactiae CMX 508 (organism code KK); BHI agar, 35-37 °C, 20 to 24 hours; unit assumed
How it was run: as §1

[14] = tested on: Staphylococcus aureus CMX 553; conditions: Staphylococcus aureus CMX 553 (organism code FF); BHI agar, 35-37 °C, 20 to 24 hours; unit assumed
How it was run: as §1

[15] = tested on: Candida albicans CCH 442; conditions: Candida albicans CCH 442 (organism code TT); BHI agar, 35-37 °C, 20 to 24 hours; unit assumed
How it was run: as §1

[16] = tested on: Staphylococcus epidermidis 3519; conditions: Staphylococcus epidermidis 3519 (organism code HH); BHI agar, 35-37 °C, 20 to 24 hours; unit assumed
How it was run: as §1

[17] = tested on: Nocardia Asteroides ATCC9970; conditions: Nocardia Asteroides ATCC9970 (organism code VV); BHI agar, 35-37 °C, 20 to 24 hours; unit assumed
How it was run: as §1

[18] = tested on: Streptococcus pyogenes EES61; conditions: Streptococcus pyogenes EES61 (organism code LL); BHI agar, 35-37 °C, 20 to 24 hours; unit assumed
How it was run: as §1

[19] = tested on: Streptococcus Pheumoniae ATCC6303; conditions: Streptococcus Pheumoniae ATCC6303 (organism code XX); BHI agar, 35-37 °C, 20 to 24 hours; unit assumed
How it was run: as §1

[20] = tested on: Staphylococcus aureus A-5278; conditions: Staphylococcus aureus A-5278 (organism code CC); BHI agar, 35-37 °C, 20 to 24 hours; unit assumed
How it was run: as §1

[21] = tested on: Streptococcus Pheumoniae 5979; conditions: Streptococcus Pheumoniae 5979 (organism code ZZ); BHI agar, 35-37 °C, 20 to 24 hours; unit assumed
How it was run: as §1

[22] = tested on: Escherichia coli SS; conditions: Escherichia coli SS (organism code RR); BHI agar, 35-37 °C, 20 to 24 hours; unit assumed
How it was run: as §1

[23] = tested on: Enterococcus faecium ATCC 8043; conditions: Enterococcus faecium ATCC 8043 (organism code II); BHI agar, 35-37 °C, 20 to 24 hours; unit assumed
How it was run: as §1

[24] = tested on: Staphylococcus aureus 1775; conditions: Staphylococcus aureus 1775 (organism code GG); BHI agar, 35-37 °C, 20 to 24 hours; unit assumed
How it was run: as §1

[25] = tested on: Streptococcus pyogenes 930; conditions: Streptococcus pyogenes 930 (organism code MM); BHI agar, 35-37 °C, 20 to 24 hours; unit assumed
How it was run: as §1

[26] = tested on: Streptococcus Pheumoniae GYR 1171; conditions: Streptococcus Pheumoniae GYR 1171 (organism code YY); BHI agar, 35-37 °C, 20 to 24 hours; unit assumed
How it was run: as §1

[27] = tested on: Staphylococcus aureus NCTC10649M; conditions: Staphylococcus aureus NCTC10649M (organism code EE); BHI agar, 35-37 °C, 20 to 24 hours; unit assumed
How it was run: as §1

Structure (SMILES)	MIC [1]	MIC [2]	MIC [3]	MIC [4]	MIC [5]	MIC [6]	MIC [7]	MIC [8]	MIC [9]	MIC [10]	MIC [11]	MIC [12]	MIC [13]	MIC [14]	MIC [15]	MIC [16]	MIC [17]	MIC [18]	MIC [19]	MIC [20]	also measured
C=C(CN(C)[C@H]1C[C@@H](C)O[C@@H](O[C@@H]2[C@@H](C)C(=O)[C@@H](C)C(=O)O[C@H](CC)[C@@]3(C)OC(=O)N[C@@H]3[C@@H](C)C(=O)[C@H](C)C[C@@]2(C)OCC=Cc2cnc3ccccc3c2)[C@@H]1O)C(=O)OC [Example 18, Compound of Formula (II); R is -CH2CH=CH-(3-quinolyl), R^p is H, W is absent, R^w is H, R^1 is CH2C(=CH2)C(O)OCH3, R^2 is CH3]	0.5 µg/mL	> 100 µg/mL	0.02 µg/mL	0.39 µg/mL	16 µg/mL	0.39 µg/mL	0.02 µg/mL	0.39 µg/mL	> 100 µg/mL	0.39 µg/mL	6.2 µg/mL	0.39 µg/mL	0.02 µg/mL	0.39 µg/mL	> 100 µg/mL	0.39 µg/mL	0.2 µg/mL	0.05 µg/mL	≤ 0.004 µg/mL	> 100 µg/mL	MIC [21]: 128 µg/mL; MIC [22]: 0.78 µg/mL; MIC [23]: 0.1 µg/mL; MIC [24]: > 100 µg/mL; MIC [25]: 25 µg/mL; MIC [26]: ≤ 0.004 µg/mL; MIC [27]: 0.39 µg/mL
C=C(C)CN(C)[C@H]1C[C@@H](C)O[C@@H](O[C@@H]2[C@@H](C)C(=O)[C@@H](C)C(=O)O[C@H](CC)[C@@]3(C)OC(=O)N[C@@H]3[C@@H](C)C(=O)[C@H](C)C[C@@]2(C)OCC=Cc2cnc3ccccc3c2)[C@@H]1O [Example 19, Compound of Formula (II); R is -CH2CH=CH-(3-quinolyl), R^p is H, W is absent, R^w is H, R^1 is CH2C(=CH2)CH3,R^2 is CH3]	0.12 µg/mL	> 100 µg/mL	0.05 µg/mL	0.2 µg/mL	4 µg/mL	0.2 µg/mL	0.02 µg/mL	0.2 µg/mL	> 100 µg/mL	0.2 µg/mL	0.2 µg/mL	0.1 µg/mL	0.02 µg/mL	0.2 µg/mL	> 100 µg/mL	0.2 µg/mL	0.1 µg/mL	0.01 µg/mL	≤ 0.004 µg/mL	> 100 µg/mL	MIC [21]: 128 µg/mL; MIC [22]: 0.78 µg/mL; MIC [23]: 0.1 µg/mL; MIC [24]: > 100 µg/mL; MIC [25]: 6.2 µg/mL; MIC [26]: ≤ 0.004 µg/mL; MIC [27]: 0.39 µg/mL
CC[C@H]1OC(=O)[C@H](C)C(=O)[C@H](C)[C@@H](O[C@@H]2O[C@H](C)C[C@H](N(C)C3CC3)[C@H]2O)[C@](C)(OCC=Cc2cnc3ccccc3c2)C[C@@H](C)C(=O)[C@H](C)[C@H]2NC(=O)O[C@@]21C [Example 20, Compound of Formula (II); R is -CH2CH=CH-(3-quinolyl), R^p is H, W is absent, R^w is H, R^1 is cyclo-C3H5, R^2 is CH3]	0.25 µg/mL	> 100 µg/mL	0.39 µg/mL	3.1 µg/mL	64 µg/mL	1.56 µg/mL	0.2 µg/mL	1.56 µg/mL	> 100 µg/mL	0.39 µg/mL	3.1 µg/mL	0.78 µg/mL	0.2 µg/mL	1.56 µg/mL	> 100 µg/mL	3.1 µg/mL	3.1 µg/mL	0.1 µg/mL	0.03 µg/mL	> 100 µg/mL	MIC [21]: 16 µg/mL; MIC [22]: 3.1 µg/mL; MIC [23]: 0.39 µg/mL; MIC [24]: > 100 µg/mL; MIC [25]: > 100 µg/mL; MIC [26]: 0.03 µg/mL; MIC [27]: 3.1 µg/mL
